Reference: patent US20220091133A1, “METHODS AND ASSAYS FOR IMMUNE PHENOTYPING” (Washington University, priority 2020, published 2022)

What was measured:
[1] = system: PBMCs (TNF-α-producing cells); experiment: ELISpot, lipopolysaccharide-stimulated TNF-α in patient PBMCs before and after IL-7 therapy (Example 5); format: in vivo, human; conditions: concomitant with initiation of IL-7 treatment
[2] = system: diluted whole blood (myeloid cell TNF-α production); experiment: Whole blood ELISpot, LPS-stimulated TNF-α production (Example 2); format: cell-based, human
Method: Innate and adaptive immune function was assessed using ELISpot analysis by measurement of the production of IFN-γ and TNF-α in ex vivo-stimulated cells following overnight culture. Capture Ab precoated 96-well polyvinylidene difluoride-backed strip plates were used for single color enzymatic assays (ImmunoSpot; Cellular Technology [CTL], Cleveland, Ohio) for detection of human IFN-γ and TNF-α. ELISpot culture procedure was followed as directed using instructions from the ELISpot kit. Samples were run in duplicate for each test condition. Plates were prepared with stimulant and were incubated at 37° C. and 5% CO2 for 30 min prior to plating cells. Identical conditions were prepared for comparison of whole blood assay to PBMC assay, and culture media alone was used as a negative control. […] PBMCs were plated into wells in quantities of 2.5×10^4 cells per well for IFN-γ and 2.5×10^3 cells per well for TNF-α. […]
(§1) Samples were scanned, analyzed, and quality controlled for spot count, spot area, and TWI using a Cellular Technology series 6 ImmunoSpot Universal Analyzer with ImmunoSpot 7.0 professional software (Cellular Technology Analyzers, Shaker Heights, Ohio). […]
(§2) The number of cytokine-secreting cells present in each ELISpot well is referred to as spot-forming units (SFU) and is reported in two distinct ways. […] The number of lymphocytes in each well was determined based upon the absolute lymphocyte count as measured by the patients' complete blood count. For ELISpot studies involving PBMCs, flow cytometry was performed on the PBMC fraction, and the number of lymphocytes, monocytes, and residual neutrophils were determined. […] Samples were acquired on FACScan (Becton Dickenson, Franklin Lakes, N.J.) with a five-color modification (CyTek Biosciences, Fremont, Calif.) and analyzed using FlowJo 10.2 (FlowJo, Ashland, Oreg.) as previously described (28). […]

[3] = system: PBMCs (T cell IFN-γ production); format: cell-based, human
[4] = Enzyme-linked immunosorbent assays for plasma type I IFN levels (Example 5); format: in vivo, human; conditions: plasma of critically ill COVID-19 patient
[5] = system: diluted whole blood (T cell IFN-γ production); experiment: Whole blood ELISpot, CD3/CD28-stimulated IFN-γ production (Example 2); format: cell-based, human
Method: Innate and adaptive immune function was assessed using ELISpot analysis by measurement of the production of IFN-γ and TNF-α in ex vivo-stimulated cells following overnight culture. Capture Ab precoated 96-well polyvinylidene difluoride-backed strip plates were used for single color enzymatic assays (ImmunoSpot; Cellular Technology [CTL], Cleveland, Ohio) for detection of human IFN-γ and TNF-α. ELISpot culture procedure was followed as directed using instructions from the ELISpot kit. Samples were run in duplicate for each test condition. Plates were prepared with stimulant and were incubated at 37° C. and 5% CO2 for 30 min prior to plating cells. Identical conditions were prepared for comparison of whole blood assay to PBMC assay, and culture media alone was used as a negative control. Combination of 500 ng/ml of anti-CD3 (clone HIT3a; BioLegend) with 2.5 μg/ml of anti-CD28 (clone CD28.2; BioLegend) Abs were used to induce IFN-γ, and 2.5 ng/ml LPS (from Salmonella abortus equi S-form, ALX-581-009; Enzo Life Sciences, Farmingdale, N.Y.) was used to induce TNF-α wells. Total well volume for all samples was 200 μl. PBMCs were plated into wells in quantities of 2.5×10^4 cells per well for IFN-γ and 2.5×10^3 cells per well for TNF-α. The relevant volume for 5×10^4 leukocytes of diluted whole blood (in culture media) was plated in each well based on complete blood counts performed in the clinical research core laboratory at Washington University. PBMCs and diluted whole blood were costimulated with and without recombinant human IL-7 (Escherichia coli-derived protein, product no. 207-IL; R&D Systems, Minneapolis, Minn.). ELISpot assays were incubated overnight for 18-22 h at 37° C. and 5% CO2 as previously described (29). […]
as §1, §2

[6] = system: PBMCs (T cell IFN-γ production); experiment: ELISpot, CD3/CD28-stimulated IFN-γ in patient PBMCs before and after IL-7 therapy (Example 5); format: in vivo, human; conditions: concomitant with initiation of IL-7 treatment
[7] = system: SARS-CoV-2-specific T cells; experiment: ELISpot, IFN-γ response to SARS-CoV-2 spike glycoprotein and nucleocapsid peptide pool (Example 5); format: in vivo, human; conditions: before vs after IL-7 therapy

IL-7: recombinant human IL-7, immunoadjuvant and potent T cell activator; R&D Systems ex vivo, RevImmune for patients
increase in the number of TNF-α-producing cells [1]: multifold increases
change in TNF-α SFUs with IL-7 ([2]; CINS): no change
change in TNF-α SFUs with IL-7 ([2]; healthy subjects, p<0.01): significant decrease
effect of IL-7 on the number of TNF-α-producing cells ([2]; septic patients, LPS + IL-7): does not increase
mean number of IFN-γ-producing T cells following ex vivo administration of IL-7 ([3]; COVID-19 patient PBMCs, anti-CD3/anti-CD28 + IL-7 50 ng/mL overnight, control without IL-7 101±21, P<0.0001): 201±36
increase of IFN-γ production of stimulated T cells by ex vivo IL-7 ([3]; COVID-19 patients, ELISpot): ~2 fold
effect of IL-7 to increase the number of IFN-γ-producing T cells ([3]; septic and CINS patients): also observed
IFN-α (all subtypes) plasma concentration ([4]; Post IL-7, Day 12): Undetectable
IFN-β plasma concentration ([4]; Post IL-7, Day 12): 130 pg/mL
IFN-α (all subtypes) plasma concentration ([4]; Post IL-7, Day 21): Undetectable
IFN-β plasma concentration ([4]; Post IL-7, Day 21): 4.1 pg/mL
effect of IL-7 on IFN-γ SFUs ([5]; healthy subjects and CINS patients): significantly increased
increase in IFN-γ spot numbers with IL-7 ([5]; sepsis nonsurvivors): 312%±240
increase in IFN-γ spot numbers with IL-7 ([5]; sepsis survivors): 102%±32
increase in the number of IFN-γ spots when stimulated with IL-7 ([5]; septic patients overall (n=19), CD3/CD28 + IL-7, p<0.005): 172%±77
increase in the number of IFN-γ-producing T cells [6]: multifold increases
improvement in the number of SARS-CoV-2 spike protein and nucleocapsid specific T cells [7]: over 30 fold
